Results on 14 molecules are retold here after patent US5607944A, “Bicyclic heterocyclic compounds, pharmaceutical preparations containing these compounds and processes for their preparations” (Karl Thomae GmbH, priority 1993, dated 1997).

One data set addresses human thrombocytes. Nature of the data set: Inhibition of binding of ^3 H-BIBU 52 to human thrombocytes (competitive binding). Particulars: human platelet-rich plasma diluted 1:10; 5 nM ^3 H-BIBU 52; 20 minutes, ambient temperature; read-out: Competitive binding of ^3 H-BIBU 52/test substance to human thrombocytes IC50. As for the experimental part:
1. Inhibition of binding of ^3 H-BIBU 52 to human thrombocytes:
A suspension of human thrombocytes in plasma is incubated with ^3 H-BIBU 52 [=(3S,5S)-5-[(4'-amidino-4-biphenylyl)oxymethyl]-3-[(carboxyl)methyl]-2pyrrolidinone[3-^3 H-4-biphenylyl]] (see German Patent Application P 42 14 245.8 of the same applicant, dated 30.04.1992, internal reference: Case 5/1093-FL), which replaces the ^125 I fibrinogen ligand known from the literature, and various concentrations of the substance to be tested. The free and bound ligand are separated by centrifuging and quantified by scintillation counting. The inhibition of ^3 H-BIBU 52 binding by the test substance is determined from the measurements obtained.
In order to do this, donor blood is taken from an anticubital vein and anticoagulated with trisodium citrate (final concentration 13 mM). The blood is centrifuged for 10 minutes at 170×g and the supernatant platelet-rich plasma (PRP) is removed. The remaining blood is vigorously centrifuged once more in order to obtain plasma. The PRP is diluted 1:10 with autologous plasma. 750 μl are incubated with 50 μl of physiological saline solution, 100 μl of test substance solution, 50 μl of ^14 C-sucrose (3,700 Bq) and 50 μl of ^3 H-BIBU 52 (final concentration: 5 nM) at ambient temperature for 20 minutes. In order to measure the non-specific binding, 5 μl of BIBU 52 (final concentration: 30 μM) are used instead of the test substance. The samples are centrifuged for 20 seconds at 10,000× g and the supernatant is poured off. 100 μl thereof are measured in order to determine the free ligand. The pellet is dissolved in 500 μl of 0.2N NaOH, 450 μl are mixed with 2 ml of scintillator and 25 μl of 5N HCl and measured. The residual plasma remaining in the pellet is determined from the ^14 C-content and the bound ligand is determined from the ^3 H-measurement. After the non-specific binding has been deducted, the pellet activity is plotted against the concentration of the test substance and the concentration for a 50% inhibition of binding is determined.

The next data set relates to platelet aggregation. Kind of data set: Antithrombotic activity: inhibition of collagen-induced platelet aggregation (Born and Cross) in platelet-rich plasma of healthy volunteers. It is filed as cell-based. The conditions noted are these: Homo sapiens, 10 minutes preincubation at 37° C. As for the experimental part: 2. Antithrombotic activity Method The thrombocyte aggregation is measured using the method of Born and Cross (J. Physiol. 170:397 (1964)) in platelet-rich plasma taken from healthy volunteers. To inhibit coagulation, the blood is mixed with 3.14% sodium citrate in a volume ratio of 1:10. Collagen-induced aggregation The pattern of the decrease in optical density of the platelet suspension is photometrically measured and recorded after the addition of the aggregation-triggering substance. The rate of aggregation is determined from the angle of inclination of the density curve. The point on the curve where there is maximum light transmittance is used to calculate the optical density. The concentration of collagen used is as small as possible but sufficient to produce an irreversible reaction curve. Standard commercial collagen produced by Hormonchemie of Munich is used. Before the addition of the collagen the plasma is incubated for 10 minutes at 37° C. with the substance. From the measurements obtained, the EC50 is determined graphically as the concentration giving a 50% change in the optical density in terms of the inhibition of aggregation.

The test system of the next data set is mice. Nature of the data set: Tolerance after intravenous administration of 30 mg/kg to three mice. It is filed as in vivo. The conditions noted are these: 30 mg/kg i.v., three mice in each case.

Where a name gives a salt, the structure may show the parent alone.

The term EC50 denotes the concentration that produces a half-maximal response. Turning to `COC(=O)[C@H]1CC[C@H](NC(=O)N2CCC(c3nc4c(s3)CCNCC4)CC2)CC1` [7(1), 2-[1-[(trans-4-methoxycarbonyl-cyclohexyl)-aminocarbonyl]-piperid-4-yl]-4,5,7,8-tetrahydro-6H-thiazolo[4,5-d]azepine-hydrochloride], the IC50 on human thrombocytes turned out to be 1400 nM. Besides, the EC50 with platelet aggregation worked out at 1400 nM.
In the case of `O=C(N[C@H]1CC[C@H](C(=O)O)CC1)c1ccc(-c2nc3cnccc3[nH]2)cc1` [3(8), 2-[4-[(trans-4-carboxy-cyclohexyl)-aminocarbonyl]-phenyl]-1H-imidazo[4,5-c]pyridine], the IC50 at human thrombocytes is 2100 nM. In the data set on platelet aggregation, it took 4200 nM to reach a half-maximal effect (EC50).
As for `CC(C)OC(=O)[C@H]1CC[C@H](NC(=O)N2CCC(c3nc4c(s3)CCNCC4)CC2)CC1` [7(3), 2-[1-[(trans-4-isopropoxycarbonyl-cyclohexyl)-aminocarbonyl]-piperid-4-yl]-4,5,7,8-tetrahydro-6H-thiazolo[4,5-d]azepine-hydrochloride], on human thrombocytes, the IC50 was determined as 1500 nM. In the data set on platelet aggregation, this molecule came in with an EC50 of 1300 nM.
For `Cc1cc(C(=O)N[C@H]2CC[C@H](C(=O)O)CC2)ccc1-c1nc2c(s1)CNCC2` [4(3), 2-[4-[(trans-4-carboxy-cyclohexyl)-aminocarbonyl]-2-methyl-phenyl]-4,5,6,7-tetrahydro-thiazolo[5,4-c]pyridine-trifluoraocetate], on human thrombocytes, the IC50 was determined as 24 nM. For the same molecule, in the data set on platelet aggregation, the EC50 turned out to be 220 nM.
As to `O=C(N[C@H]1CC[C@H](C(=O)O)CC1)N1CCC(c2nc3c(s2)CCNCC3)CC1` [3(6), 2-[1-[(trans-4-carboxy-cyclohexyl)-aminocarbonyl]-piperid-4-yl]-4,5,7,8-tetrahydro-6H-thiazolo[4,5-d]azepine], the IC50 on human thrombocytes amounted to 42 nM. Further, in the data set on platelet aggregation, the EC50 came out at 100 nM.
Regarding `O=C(N[C@H]1CC[C@H](C(=O)O)CC1)c1ccc(-c2nc3c(s2)CNCC3)cc1.O=C(O)C(F)(F)F` [Example 4, 2-[4-[(trans-4-Carboxy-cyclohexyl)-aminocarbonyl]-phenyl]-4,5,6,7-tetrahydro-thiazolo[5,4-c]pyridine-trifluoroacetate], the IC50 at human thrombocytes was found to be 96 nM. In the data set with platelet aggregation, this molecule yielded an EC50 of 410 nM. In addition, the “death of animals after intravenous administration” value in the data set on mice is on record as “no animals died”.
For the molecule `O=C(O)CC1CCN(C(=O)c2ccc(-c3nc4c(s3)CNCC4)cc2)CC1` [2(1), 2-[4-[4-(carboxymethyl)-piperidinocarbonyl]-phenyl]-4,5,6,7-tetrahydro-thiazolo[5,4-c]pyridine-hydrochloride], at human thrombocytes, the IC50 came to 210 nM. In the data set with platelet aggregation, this molecule displayed an EC50 of 2600 nM.
`CCOC(=O)[C@H]1CC[C@H](NC(=O)N2CCC(c3nc4c(s3)CCNCC4)CC2)CC1` [7(2), 2-[1-[(trans-4-ethoxycarbonyl-cyclohexyl)-aminocarbonyl]-piperid-4-yl]-4,5,7,8-tetrahydro-6H-thiazolo[4,5-d]azepine-hydrochloride]: the IC50 on human thrombocytes turned out to be 1300 nM. Further, a half-maximal response in the data set with platelet aggregation (EC50) required 2600 nM.
Taken in the same sequence, the figures for `CN1CCc2nc(C3CCN(C(=O)N[C@H]4CC[C@H](C(=O)O)CC4)CC3)sc2CC1` [3(12), 2-[1-[(trans-4-carboxy-cyclohexyl)-aminocarbonyl]-piperid-4-yl]-6-methyl-4,5,7,8-tetrahydro-thiazolo[4,5-d]azepine] were 2000 nM and 2900 nM.
For `COC(=O)[C@H]1CC[C@H](NC(=O)c2ccc(-c3nc4c(s3)CNCC4)c(C)c2)CC1` [2(4), 2-[4-[(trans-4-methoxycarbonyl-cyclohexyl)-aminocarbonyl]-2-methyl-phenyl]-4,5,6,7-tetrahydro-thiazolo[5,4-c]pyridine-dihydrochloride], the IC50 at human thrombocytes amounted to 450 nM. This molecule also displayed an EC50 in the data set with platelet aggregation of 1440 nM.
Take `O=C(N[C@H]1CC[C@H](C(=O)O)CC1)N1CCC(c2nc3c(s2)CNCC3)CC1` [3(5), 2-[1-[(trans-4-carboxy-cyclohexyl)-aminocarbonyl]-piperid-4-yl]-4,5,6,7-tetrahydro-thiazolo[5,4-c]pyridine]: on human thrombocytes, the IC50 worked out at 31 nM. The molecule further showed an EC50 in the data set on platelet aggregation of 100 nM.
Take `O=C(N[C@H]1CC[C@H](C(=O)O)CC1)c1ccc(-c2nc3c(s2)CCNCC3)cc1.O=C(O)C(F)(F)F` [4(1), 2-[4-[(trans-4-carboxy-cyclohexyl)-aminocarbonyl]-phenyl]-4,5,7,8-tetrahydro-6H-thiazolo[4,5-d]azepine-trifluoroacetate]: the IC50 on human thrombocytes is 75 nM. The molecule further showed an EC50 with platelet aggregation of 680 nM. For the same molecule, the “death of animals after intravenous administration” value in the data set with mice is given as “no animals died”.
Take `CC(C)COC(=O)[C@H]1CC[C@H](NC(=O)N2CCC(c3nc4c(s3)CCNCC4)CC2)CC1` [Example 7, 2-[1-[(trans-4-Isobutyloxycarbonyl-cyclohexyl)-aminocarbonyl]-piperid-4-yl]-4,5,7,8-tetrahydro-6H-thiazolo[4,5-d]azepine-hydrochloride]: at human thrombocytes, the IC50 was determined as 1600 nM. For the same molecule, in the data set with platelet aggregation, the EC50 amounted to 660 nM.
Turning to `O=C(O)[C@H]1CC[C@H](NC(=O)[C@H]2CC[C@H](c3nc4c(s3)CCNCC4)CC2)CC1` [4(4), 2-[trans-4-[(trans-4-carboxy-cyclohexyl)-aminocarbonyl]-cyclohexyl]-4,5,7,8-tetrahydro-6H-thiazolo[4,5-d]azepine-trifluoroacetate], the IC50 on human thrombocytes came to 120 nM. The same molecule registered an EC50 with platelet aggregation of 110 nM.
